Results reported in ChEMBL document CHEMBL1128950, “Synthesis and structure-activity relationships of 9-substituted acridines as endothelin-A receptor antagonists” (Bioorg Med Chem Lett, 1996).
pIC50: −log10 of the molar value.

Columns and labels:
Type in all cases: cell-based
Endothelin-1 receptor = target: T1, Endothelin-1 receptor (Homo sapiens, UniProt P25101); test: Inhibition of binding of [125I]ET1 to cloned human Endothelin A receptor expressed in LtK- cells
T1 sequence (P25101 whole entry): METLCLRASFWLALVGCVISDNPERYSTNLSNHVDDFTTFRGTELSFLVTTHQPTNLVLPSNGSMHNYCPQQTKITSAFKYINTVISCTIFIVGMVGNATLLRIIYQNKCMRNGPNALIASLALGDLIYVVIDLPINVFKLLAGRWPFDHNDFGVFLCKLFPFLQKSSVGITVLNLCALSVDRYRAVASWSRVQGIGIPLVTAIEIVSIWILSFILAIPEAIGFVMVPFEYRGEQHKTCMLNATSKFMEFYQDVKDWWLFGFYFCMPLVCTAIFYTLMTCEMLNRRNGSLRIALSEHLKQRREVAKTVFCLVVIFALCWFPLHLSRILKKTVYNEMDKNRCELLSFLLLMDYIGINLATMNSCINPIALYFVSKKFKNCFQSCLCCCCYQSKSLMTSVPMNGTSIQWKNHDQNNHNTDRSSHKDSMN

[1] = target: T2, Endothelin receptor type B (Homo sapiens, UniProt P24530); test: Inhibition of binding of [125I]ET1 to cloned human Endothelin B receptor expressed in CHO-K1 cells up to 200 uM; non significant
T2 sequence (P24530 whole entry): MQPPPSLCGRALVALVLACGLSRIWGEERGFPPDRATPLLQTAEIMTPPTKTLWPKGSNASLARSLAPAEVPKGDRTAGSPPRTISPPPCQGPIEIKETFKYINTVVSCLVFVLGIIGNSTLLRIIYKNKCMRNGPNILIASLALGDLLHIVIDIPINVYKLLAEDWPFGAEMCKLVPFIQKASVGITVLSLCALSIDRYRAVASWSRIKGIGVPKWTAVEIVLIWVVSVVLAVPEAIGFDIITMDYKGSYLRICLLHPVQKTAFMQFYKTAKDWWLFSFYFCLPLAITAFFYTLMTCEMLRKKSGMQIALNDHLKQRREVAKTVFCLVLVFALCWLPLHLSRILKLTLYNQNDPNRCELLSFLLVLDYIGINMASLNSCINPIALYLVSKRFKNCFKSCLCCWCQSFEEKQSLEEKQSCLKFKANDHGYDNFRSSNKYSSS

[2] = target: T2, Endothelin receptor type B; test: Compound was tested for inhibition of binding of [125I]ET1 to cloned human Endothelin B receptor expressed in CHO-K1 cells

Row | Structure (SMILES) | pIC50 (Endothelin-1 receptor) | IC50 [1] | pIC50 [2]
1 | COC(=O)C(c1ccc(Cl)cc1)c1c2ccccc2nc2ccccc12 (centres undefined) | < 4.60 | Not Active | 
2 | COC(=O)C(c1ccc2c(c1)OCO2)c1c2ccccc2[n+]([O-])c2ccccc12 (centres undefined) | < 4.60 | Not Active | 
3 | COC(=O)C(c1ccc2c(c1)OCO2)c1c2c(nc3ccccc13)CCCC2 (centres undefined) |  | Not Active | 
4 | COC(=O)C(c1ccc(OC)c(OC)c1)c1c2ccccc2nc2ccccc12 (centres undefined) | < 4.60 | Not Active | 
5 | COC(=O)C(c1ccc2c(c1)OCO2)C1c2ccccc2CCc2ccccc21 (centres undefined) | < 4.60 | Not Active | 
6 | COC(=O)C(c1ccc2c(c1)OCO2)c1cc(C)nc2ccccc12 (centres undefined) | 4.21 | Not Active | 
7 | COC(=O)C(c1ccc([N+](=O)[O-])cc1)c1c2ccccc2nc2ccccc12 (centres undefined) | < 4.60 | Not Active | 
8 | COC(=O)C(c1ccc2c(c1)OCO2)c1cc(-c2ccccc2)nc2ccccc12 (centres undefined) | < 4.60 | Not Active | 
9 | COC(=O)C(Cc1c2ccccc2cc2ccccc12)c1ccc2c(c1)OCO2 (centres undefined) | 4.12 | Not Active | 
10 | COC(=O)C(c1ccc(Cl)c(Cl)c1)c1c2ccccc2nc2ccccc12 (centres undefined) | < 4.60 | Not Active | 
11 | Cc1cc(C(C(N)=O)c2ccc3c(c2)OCO3)c2ccccc2n1 (centres undefined) | 4.43 | Not Active | 
12 | COC(=O)C(c1ccc2c(c1)OCO2)C(c1ccccc1)c1ccccc1 (centres undefined) | < 4.60 | Not Active | 
13 | COC(=O)C(c1ccc2c(c1)OCO2)c1c2ccccc2nc2c(OC)c(OC)ccc12 (centres undefined) | < 4.60 | Not Active | 
14 | O=C(OCc1ccc2c(c1)OCO2)C(c1ccc2c(c1)OCO2)c1c2ccccc2nc2ccccc12 (centres undefined) | 4.48 | Not Active | 
15 | COC(=O)C(c1ccc(OC)cc1)c1c2ccccc2nc2ccccc12 (centres undefined) | < 4.60 | Not Active | 
16 | c1ccc2c(Cc3ccc4c(c3)OCO4)c3ccccc3nc2c1 | < 4.60 | Not Active | 

Further lines, results first:

Row | pIC50 (Endothelin-1 receptor) | IC50 [1] | pIC50 [2] | Structure (SMILES)
17 | < 4.60 | Not Active |  | COC(=O)C(Cc1ccc2c(c1)OCO2)c1c2ccccc2nc2ccccc12 (centres undefined)
18 |  | Not Active |  | NC(=O)C(c1ccc2c(c1)OCO2)c1c2ccccc2nc2ccccc12 (centres undefined)
19 | 6.05 | Not Active |  | OCC(c1ccc2c(c1)OCO2)c1c2ccccc2nc2ccccc12 (centres undefined)
20 |  | Not Active |  | CC(C)(C)OC(=O)C(c1ccc2c(c1)OCO2)c1c2ccccc2nc2ccccc12 (centres undefined)
21 |  | Not Active |  | COc1ccc(COC(=O)C(c2ccc3c(c2)OCO3)c2c3ccccc3nc3ccccc23)cc1 (centres undefined)
22 | < 4.60 | Not Active |  | O=C(OCc1ccc(Cl)cc1)C(c1ccc2c(c1)OCO2)c1c2ccccc2nc2ccccc12 (centres undefined)
23 |  | Not Active |  | O=CC(c1ccc2c(c1)OCO2)c1c2ccccc2nc2ccccc12 (centres undefined)
24 | < 4.60 | Not Active |  | COC(=O)C(c1ccc2c(c1)OC(C)(C)O2)c1c2ccccc2nc2ccccc12 (centres undefined)
25 | 4.24 | Not Active |  | O=C(OCc1ccccc1)C(c1ccc2c(c1)OCO2)c1c2ccccc2nc2ccccc12 (centres undefined)
26 | < 4.60 | Not Active |  | CC(C)(C)c1ccc(COC(=O)C(c2ccc3c(c2)OCO3)c2c3ccccc3nc3ccccc23)cc1 (centres undefined)
27 |  |  | < 3.60 | COC(=O)C(c1ccc2c(c1)OCO2)c1c2ccccc2nc2ccccc12 (centres undefined)
28 |  | Not Active |  | COC(=O)C(Oc1c2ccccc2nc2ccccc12)c1ccc2c(c1)OCO2 (centres undefined)
